Consider three compounds from patent US20240366471A1, “MULTIDOSE ANTIBODY DRUG PRODUCTS USING PHENOL OR BENZYL ALCOHOL” (Regeneron Pharmaceuticals, Inc., priority 2023, published 2024).

A short description of data set [1]: Purity by SE-UPLC (% HMW, % Main, % LMW) on storage. It counts as physicochemical. Conditions: stress conditions (40° C. and 45° C.).
Experimental: To determine the effect of preservatives on high molecular weight (HMW) complex formation for different mAbs formulations, various antibodies were incubated at 40° C. over the course of 3 months with or without tested preservatives.
To determine the effect of preservatives on high molecular weight (HMW) complex formation for different mAbs formulations, various antibodies were incubated at 25° C. over the course of 6 months with or without tested preservatives.
The nature of data set [2]: Compatibility of preservatives with mAb formulations. It counts as physicochemical. Conditions: preservative in mAb formulations, incompatibility seen as turbidity.
Data set [3] in a line: Overall storage stability of mAb formulations with preservatives. Conditions: all storage conditions.
Experimental: Storage stability of the Fc-containing proteins were assessed at various temperatures, as will be described in further detail, including at 5° C., 25° C., 40° C., and 45° C., to enable kinetic degradation profiling, if applicable.
The sample formulations with preservatives were compared to the control formulations without preservatives to evaluate the effect of preservatives on protein stability.

Consider `OCc1ccccc1` [benzyl alcohol], for which the “mAb aggregation detected by SE-UPLC (in words)” value in data set [1] is given as “higher mAb aggregation”.

For the compound `Cc1cccc(O)c1` [m-cresol], the “compatibility with the mAb formulations” value in data set [2] is “not compatible”; in data set [2] (listed as cresol), “incompatible”. As for `Oc1ccccc1` [phenol], the “destabilizing effect of preservative on mAbs (in words)” value in data set [3] is on record as “least destabilization effect”; in data set [3] (listed as Phenol), “only minimal destabilizing effect”.
